Test results from the NIST ThermoML archive (doi:10.1016/j.fluid.2004.09.013).
± gives the expanded uncertainty stated by the source.

Details: for mass density: Fluid (supercritical or subcritical phases), Vibrating tube method; for vapor or sublimation pressure: Liquid

SMILES: C/C=C/C [(E)-2-butene]
- mass density (273.24 K, 553 kPa): 627.87 ± 1.3 kg/m3
- mass density (273.24 K, 4992 kPa): 633.27 ± 1.3 kg/m3
- mass density (273.24 K, 9995 kPa): 638.88 ± 1.3 kg/m3
- mass density (273.24 K, 14991 kPa): 644.04 ± 1.3 kg/m3
- mass density (273.24 K, 19997 kPa): 648.86 ± 1.4 kg/m3
- mass density (273.24 K, 24996 kPa): 653.38 ± 1.4 kg/m3
- mass density (273.24 K, 29993 kPa): 657.62 ± 1.4 kg/m3
- mass density (273.24 K, 34997 kPa): 661.64 ± 1.4 kg/m3
- mass density (273.24 K, 39989 kPa): 665.43 ± 1.5 kg/m3
- vapor or sublimation pressure (274.84 K): 105.09 ± 0.48 kPa
- mass density (278.25 K, 553 kPa): 622.2 ± 1.3 kg/m3
- mass density (278.25 K, 4990 kPa): 627.88 ± 1.3 kg/m3
- mass density (278.25 K, 10005 kPa): 633.76 ± 1.3 kg/m3
- mass density (278.25 K, 15007 kPa): 639.16 ± 1.3 kg/m3
- mass density (278.25 K, 20007 kPa): 644.16 ± 1.4 kg/m3
- mass density (278.25 K, 24990 kPa): 648.82 ± 1.4 kg/m3
- mass density (278.25 K, 30005 kPa): 653.23 ± 1.4 kg/m3
- mass density (278.25 K, 34987 kPa): 657.36 ± 1.4 kg/m3
- mass density (278.25 K, 40004 kPa): 661.3 ± 1.5 kg/m3
- vapor or sublimation pressure (278.8 K): 122.11 ± 0.52 kPa
- mass density (283.26 K, 551 kPa): 616.48 ± 1.2 kg/m3
- mass density (283.26 K, 4990 kPa): 622.46 ± 1.3 kg/m3
- mass density (283.26 K, 9993 kPa): 628.6 ± 1.3 kg/m3
- mass density (283.26 K, 15009 kPa): 634.25 ± 1.3 kg/m3
- mass density (283.26 K, 20003 kPa): 639.45 ± 1.3 kg/m3
- mass density (283.26 K, 24994 kPa): 644.29 ± 1.4 kg/m3
- mass density (283.26 K, 29985 kPa): 648.83 ± 1.4 kg/m3
- mass density (283.26 K, 35008 kPa): 653.12 ± 1.4 kg/m3
- mass density (283.26 K, 40005 kPa): 657.17 ± 1.5 kg/m3
- vapor or sublimation pressure (283.68 K): 145.21 ± 0.59 kPa
- vapor or sublimation pressure (287.85 K): 167.86 ± 0.67 kPa
- mass density (288.27 K, 548 kPa): 610.68 ± 1.2 kg/m3
- mass density (288.27 K, 4995 kPa): 616.99 ± 1.3 kg/m3
- mass density (288.27 K, 9994 kPa): 623.43 ± 1.3 kg/m3
- mass density (288.27 K, 14992 kPa): 629.3 ± 1.3 kg/m3
- mass density (288.27 K, 19992 kPa): 634.71 ± 1.3 kg/m3
- mass density (288.27 K, 24999 kPa): 639.75 ± 1.4 kg/m3
- mass density (288.27 K, 29993 kPa): 644.44 ± 1.4 kg/m3
- mass density (288.27 K, 34985 kPa): 648.85 ± 1.4 kg/m3
- mass density (288.27 K, 40007 kPa): 653.04 ± 1.5 kg/m3
- vapor or sublimation pressure (292.59 K): 196.47 ± 0.76 kPa
- mass density (293.28 K, 550 kPa): 604.8 ± 1.2 kg/m3
- mass density (293.28 K, 4985 kPa): 611.45 ± 1.2 kg/m3
- mass density (293.28 K, 9991 kPa): 618.21 ± 1.3 kg/m3
- mass density (293.28 K, 14993 kPa): 624.34 ± 1.3 kg/m3
- mass density (293.28 K, 19997 kPa): 629.98 ± 1.3 kg/m3
- mass density (293.28 K, 24993 kPa): 635.19 ± 1.4 kg/m3
- mass density (293.28 K, 29998 kPa): 640.06 ± 1.4 kg/m3
- mass density (293.28 K, 35013 kPa): 644.64 ± 1.4 kg/m3
- mass density (293.28 K, 39998 kPa): 648.92 ± 1.4 kg/m3
- vapor or sublimation pressure (296.57 K): 221.89 ± 0.89 kPa
- mass density (298.29 K, 551 kPa): 598.83 ± 1.2 kg/m3
- mass density (298.29 K, 4989 kPa): 605.85 ± 1.2 kg/m3
- mass density (298.29 K, 14986 kPa): 619.36 ± 1.3 kg/m3
- mass density (298.29 K, 19984 kPa): 625.21 ± 1.3 kg/m3
- mass density (298.29 K, 25012 kPa): 630.65 ± 1.4 kg/m3
- mass density (298.29 K, 29999 kPa): 635.67 ± 1.4 kg/m3
- mass density (298.29 K, 34986 kPa): 640.36 ± 1.4 kg/m3
- mass density (298.29 K, 39987 kPa): 644.79 ± 1.4 kg/m3
- mass density (298.3 K, 9994 kPa): 612.96 ± 1.3 kg/m3
- mass density (303.3 K, 590 kPa): 592.81 ± 1.2 kg/m3
- mass density (303.3 K, 4982 kPa): 600.18 ± 1.2 kg/m3
- mass density (303.3 K, 9998 kPa): 607.66 ± 1.3 kg/m3
- mass density (303.3 K, 19987 kPa): 620.43 ± 1.3 kg/m3
- mass density (303.3 K, 25004 kPa): 626.07 ± 1.4 kg/m3
- mass density (303.3 K, 29998 kPa): 631.26 ± 1.4 kg/m3
- mass density (303.3 K, 35005 kPa): 636.13 ± 1.4 kg/m3
- mass density (303.31 K, 15001 kPa): 614.35 ± 1.3 kg/m3
- mass density (303.31 K, 39999 kPa): 640.69 ± 1.4 kg/m3
- vapor or sublimation pressure (307.78 K): 313.51 ± 1.2 kPa
- mass density (308.31 K, 635 kPa): 586.69 ± 1.2 kg/m3
- mass density (308.31 K, 4989 kPa): 594.43 ± 1.2 kg/m3
- mass density (308.32 K, 10005 kPa): 602.29 ± 1.2 kg/m3
- mass density (308.32 K, 14996 kPa): 609.28 ± 1.3 kg/m3
- mass density (308.32 K, 19995 kPa): 615.63 ± 1.3 kg/m3
- mass density (308.32 K, 24994 kPa): 621.44 ± 1.3 kg/m3
- mass density (308.32 K, 29983 kPa): 626.82 ± 1.4 kg/m3
- mass density (308.32 K, 35009 kPa): 631.86 ± 1.4 kg/m3
- mass density (308.32 K, 39996 kPa): 636.54 ± 1.4 kg/m3
- vapor or sublimation pressure (313.09 K): 365.29 ± 1.4 kPa
- mass density (313.2 K, 869 kPa): 580.91 ± 1.2 kg/m3
- mass density (313.21 K, 4996 kPa): 588.66 ± 1.2 kg/m3
- mass density (313.21 K, 10004 kPa): 596.91 ± 1.2 kg/m3
- mass density (313.21 K, 14989 kPa): 604.2 ± 1.3 kg/m3
- mass density (313.21 K, 20008 kPa): 610.83 ± 1.3 kg/m3
- mass density (313.21 K, 24999 kPa): 616.85 ± 1.3 kg/m3
- mass density (313.21 K, 29996 kPa): 622.41 ± 1.4 kg/m3
- mass density (313.21 K, 34992 kPa): 627.58 ± 1.4 kg/m3
- mass density (313.21 K, 39986 kPa): 632.41 ± 1.4 kg/m3
- vapor or sublimation pressure (318.13 K): 418.65 ± 1.6 kPa
- mass density (318.21 K, 939 kPa): 574.67 ± 1.2 kg/m3
- mass density (318.21 K, 5000 kPa): 582.76 ± 1.2 kg/m3
- mass density (318.21 K, 9985 kPa): 591.43 ± 1.2 kg/m3
- mass density (318.21 K, 14990 kPa): 599.1 ± 1.3 kg/m3
- mass density (318.21 K, 20004 kPa): 605.99 ± 1.3 kg/m3
- mass density (318.21 K, 25005 kPa): 612.25 ± 1.3 kg/m3
- mass density (318.21 K, 29987 kPa): 617.99 ± 1.4 kg/m3
- mass density (318.21 K, 34986 kPa): 623.33 ± 1.4 kg/m3
- mass density (318.21 K, 39990 kPa): 628.31 ± 1.4 kg/m3
- mass density (323.22 K, 1000 kPa): 568.23 ± 1.2 kg/m3
- mass density (323.22 K, 4994 kPa): 576.71 ± 1.2 kg/m3
- mass density (323.22 K, 9997 kPa): 585.9 ± 1.2 kg/m3
- mass density (323.22 K, 14997 kPa): 593.93 ± 1.2 kg/m3
- mass density (323.22 K, 19997 kPa): 601.1 ± 1.3 kg/m3
- mass density (323.22 K, 24992 kPa): 607.59 ± 1.3 kg/m3
- mass density (323.22 K, 30007 kPa): 613.57 ± 1.4 kg/m3
- mass density (323.22 K, 34983 kPa): 619.06 ± 1.4 kg/m3
- mass density (323.22 K, 39993 kPa): 624.2 ± 1.4 kg/m3
- vapor or sublimation pressure (327.87 K): 543.04 ± 2 kPa
- mass density (328.22 K, 1068 kPa): 561.65 ± 1.1 kg/m3
- mass density (328.22 K, 4987 kPa): 570.54 ± 1.2 kg/m3
- mass density (328.22 K, 9989 kPa): 580.26 ± 1.2 kg/m3
- mass density (328.22 K, 14994 kPa): 588.69 ± 1.2 kg/m3
- mass density (328.22 K, 19994 kPa): 596.17 ± 1.3 kg/m3
- mass density (328.22 K, 24990 kPa): 602.92 ± 1.3 kg/m3
- mass density (328.22 K, 30006 kPa): 609.12 ± 1.4 kg/m3
- mass density (328.22 K, 34984 kPa): 614.78 ± 1.4 kg/m3
